ChEMBL document CHEMBL4507318, “Data for DCP probe BAY-985” (2021)

Legend:
[1] = test system: Phosphatidylinositol 4,5-bisphosphate 3-kinase catalytic subunit alpha isoform (Homo sapiens), P42336 [H1047Y]
[2] = biological target: Serine/threonine-protein kinase 38 (Homo sapiens) (UniProt Q15208)
[3] = test system: Epidermal growth factor receptor (Homo sapiens), P00533 [L861Q]
[4] = biological target: Tyrosine-protein kinase Mer (Homo sapiens) (UniProt Q12866)
[5] = biological target: Phosphatidylinositol 4,5-bisphosphate 3-kinase catalytic subunit alpha isoform (Homo sapiens) (UniProt P42336)
[6] = biological target: Mitogen-activated protein kinase 1 (Homo sapiens) (UniProt P28482)
[7] = biological target: Tyrosine-protein kinase Srms (Homo sapiens) (UniProt Q9H3Y6)
Chain of Tyrosine-protein kinase Srms (Homo sapiens) (Q9H3Y6 whole entry): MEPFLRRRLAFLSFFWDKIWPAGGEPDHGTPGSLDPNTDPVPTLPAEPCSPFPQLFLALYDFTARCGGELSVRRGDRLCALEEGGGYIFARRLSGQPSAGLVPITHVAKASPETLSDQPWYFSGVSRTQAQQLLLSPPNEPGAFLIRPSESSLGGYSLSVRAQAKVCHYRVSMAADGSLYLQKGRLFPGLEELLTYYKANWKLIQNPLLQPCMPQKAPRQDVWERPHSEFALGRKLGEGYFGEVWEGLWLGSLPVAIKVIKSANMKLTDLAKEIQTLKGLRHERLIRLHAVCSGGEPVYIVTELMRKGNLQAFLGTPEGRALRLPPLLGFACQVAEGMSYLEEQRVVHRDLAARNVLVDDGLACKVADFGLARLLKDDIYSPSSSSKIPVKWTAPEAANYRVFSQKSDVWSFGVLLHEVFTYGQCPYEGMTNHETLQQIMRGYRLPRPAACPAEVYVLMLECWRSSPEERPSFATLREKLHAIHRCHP

[8] = biological target: D(3) dopamine receptor (Homo sapiens) (UniProt P35462); conditions: Compound concentration 10.0 uM
[9] = biological target: Ribosomal protein S6 kinase beta-1 (Homo sapiens) (UniProt P23443)
[10] = biological target: Serine/threonine-protein kinase 16 (Homo sapiens) (UniProt O75716)
[11] = biological target: Tyrosine-protein kinase ABL1 (Homo sapiens) (UniProt P00519)
[12] = test system: Epidermal growth factor receptor (Homo sapiens), P00533 [T790M]
[13] = biological target: Receptor tyrosine-protein kinase erbB-4 (Homo sapiens) (UniProt Q15303)
Chain of Receptor tyrosine-protein kinase erbB-4 (Homo sapiens) (Q15303 whole entry): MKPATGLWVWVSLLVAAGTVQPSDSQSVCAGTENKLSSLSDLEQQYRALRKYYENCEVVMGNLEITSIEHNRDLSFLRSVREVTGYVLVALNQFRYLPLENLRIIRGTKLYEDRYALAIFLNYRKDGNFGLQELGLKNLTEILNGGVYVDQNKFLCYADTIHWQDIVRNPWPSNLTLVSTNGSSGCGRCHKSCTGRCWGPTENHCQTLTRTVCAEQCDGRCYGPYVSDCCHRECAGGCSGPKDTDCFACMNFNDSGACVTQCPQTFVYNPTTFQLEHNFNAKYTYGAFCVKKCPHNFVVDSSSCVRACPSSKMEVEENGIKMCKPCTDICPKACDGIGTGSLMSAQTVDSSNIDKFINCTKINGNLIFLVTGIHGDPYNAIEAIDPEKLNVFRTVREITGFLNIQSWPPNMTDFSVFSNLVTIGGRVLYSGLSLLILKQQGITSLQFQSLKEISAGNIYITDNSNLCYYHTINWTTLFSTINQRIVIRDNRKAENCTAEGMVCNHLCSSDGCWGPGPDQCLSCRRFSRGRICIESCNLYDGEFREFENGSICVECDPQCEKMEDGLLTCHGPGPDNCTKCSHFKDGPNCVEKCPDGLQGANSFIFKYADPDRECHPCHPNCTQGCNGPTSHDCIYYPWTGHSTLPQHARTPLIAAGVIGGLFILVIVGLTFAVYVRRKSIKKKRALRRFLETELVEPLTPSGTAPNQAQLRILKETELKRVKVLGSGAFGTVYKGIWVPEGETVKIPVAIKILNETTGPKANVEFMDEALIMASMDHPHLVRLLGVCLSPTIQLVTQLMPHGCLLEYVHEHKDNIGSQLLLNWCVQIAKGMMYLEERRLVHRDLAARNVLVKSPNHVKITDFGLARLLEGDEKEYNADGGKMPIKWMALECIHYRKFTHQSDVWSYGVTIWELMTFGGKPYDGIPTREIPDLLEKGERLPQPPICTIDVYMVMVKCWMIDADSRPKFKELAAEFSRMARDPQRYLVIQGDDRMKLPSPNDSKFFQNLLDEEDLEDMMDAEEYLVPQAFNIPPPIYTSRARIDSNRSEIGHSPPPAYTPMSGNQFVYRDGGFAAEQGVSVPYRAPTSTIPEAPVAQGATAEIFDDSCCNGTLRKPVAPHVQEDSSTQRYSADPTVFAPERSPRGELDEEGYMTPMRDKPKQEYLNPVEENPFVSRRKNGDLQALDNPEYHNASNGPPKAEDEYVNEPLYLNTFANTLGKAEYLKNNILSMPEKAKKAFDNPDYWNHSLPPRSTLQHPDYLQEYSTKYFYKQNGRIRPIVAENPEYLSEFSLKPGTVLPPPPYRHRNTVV

[14] = biological target: Calcium/calmodulin-dependent protein kinase type II subunit alpha (Homo sapiens) (UniProt Q9UQM7)
[15] = biological target: Leucine-rich repeat serine/threonine-protein kinase 2 (Homo sapiens) (UniProt Q5S007)
[16] = test system: Tyrosine-protein kinase ABL1 (Homo sapiens), P00519 [F317I]
[17] = biological target: Epidermal growth factor receptor (Homo sapiens) (UniProt P00533)
[18] = biological target: Myosin-IIIb (Homo sapiens) (UniProt Q8WXR4)
[19] = biological target: 1-phosphatidylinositol 3-phosphate 5-kinase (Homo sapiens) (UniProt Q9Y2I7)
[20] = biological target: Mitogen-activated protein kinase kinase kinase kinase 2 (Homo sapiens) (UniProt Q12851)
[21] = biological target: 5-hydroxytryptamine receptor 5A (Homo sapiens) (UniProt P47898); conditions: Compound concentration 10.0 uM
[22] = biological target: Uncharacterized serine/threonine-protein kinase SBK3 (Homo sapiens) (UniProt P0C264)
Chain of Uncharacterized serine/threonine-protein kinase SBK3 (Homo sapiens) (P0C264 whole entry, canonical isoform): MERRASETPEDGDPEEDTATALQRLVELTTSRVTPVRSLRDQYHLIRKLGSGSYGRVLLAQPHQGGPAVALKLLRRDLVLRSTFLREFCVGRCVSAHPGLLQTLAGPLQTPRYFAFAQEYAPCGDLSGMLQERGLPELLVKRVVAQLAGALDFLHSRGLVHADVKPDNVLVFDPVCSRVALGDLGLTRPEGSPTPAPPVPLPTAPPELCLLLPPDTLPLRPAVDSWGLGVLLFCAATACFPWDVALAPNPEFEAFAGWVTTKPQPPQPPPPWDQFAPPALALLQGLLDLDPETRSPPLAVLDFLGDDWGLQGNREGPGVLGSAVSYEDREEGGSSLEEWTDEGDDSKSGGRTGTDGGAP

[23] = biological target: Phosphorylase b kinase regulatory subunit alpha, liver isoform (Homo sapiens) (UniProt P46019)
[24] = biological target: Serine/threonine-protein kinase LATS1 (Homo sapiens) (UniProt O95835)
[25] = biological target: Beta-1 adrenergic receptor (Homo sapiens) (UniProt P08588); conditions: Compound concentration 10.0 uM
[26] = biological target: Receptor-interacting serine/threonine-protein kinase 1 (Homo sapiens) (UniProt Q13546)
[27] = biological target: RAF proto-oncogene serine/threonine-protein kinase (Homo sapiens) (UniProt P04049)
[28] = test system: Tyrosine-protein kinase ABL1 (Homo sapiens), P00519 [F317L]
[29] = biological target: Activin receptor type-2A (Homo sapiens) (UniProt P27037)
[30] = biological target: Bone morphogenetic protein receptor type-1B (Homo sapiens) (UniProt O00238)
[31] = biological target: Activin receptor type-1B (Homo sapiens) (UniProt P36896)
[32] = biological target: Ephrin type-A receptor 4 (Homo sapiens) (UniProt P54764)
[33] = biological target: Mitogen-activated protein kinase 6 (Homo sapiens) (UniProt Q16659)
[34] = biological target: Phosphatidylinositol 4,5-bisphosphate 3-kinase catalytic subunit delta isoform (Homo sapiens) (UniProt O00329)
[35] = biological target: Ephrin type-A receptor 5 (Homo sapiens) (UniProt P54756)
[36] = biological target: Serine/threonine-protein kinase tousled-like 1 (Homo sapiens) (UniProt Q9UKI8)
[37] = biological target: Mast/stem cell growth factor receptor Kit (Homo sapiens) (UniProt P10721)
Chain of Mast/stem cell growth factor receptor Kit (Homo sapiens) (P10721 whole entry): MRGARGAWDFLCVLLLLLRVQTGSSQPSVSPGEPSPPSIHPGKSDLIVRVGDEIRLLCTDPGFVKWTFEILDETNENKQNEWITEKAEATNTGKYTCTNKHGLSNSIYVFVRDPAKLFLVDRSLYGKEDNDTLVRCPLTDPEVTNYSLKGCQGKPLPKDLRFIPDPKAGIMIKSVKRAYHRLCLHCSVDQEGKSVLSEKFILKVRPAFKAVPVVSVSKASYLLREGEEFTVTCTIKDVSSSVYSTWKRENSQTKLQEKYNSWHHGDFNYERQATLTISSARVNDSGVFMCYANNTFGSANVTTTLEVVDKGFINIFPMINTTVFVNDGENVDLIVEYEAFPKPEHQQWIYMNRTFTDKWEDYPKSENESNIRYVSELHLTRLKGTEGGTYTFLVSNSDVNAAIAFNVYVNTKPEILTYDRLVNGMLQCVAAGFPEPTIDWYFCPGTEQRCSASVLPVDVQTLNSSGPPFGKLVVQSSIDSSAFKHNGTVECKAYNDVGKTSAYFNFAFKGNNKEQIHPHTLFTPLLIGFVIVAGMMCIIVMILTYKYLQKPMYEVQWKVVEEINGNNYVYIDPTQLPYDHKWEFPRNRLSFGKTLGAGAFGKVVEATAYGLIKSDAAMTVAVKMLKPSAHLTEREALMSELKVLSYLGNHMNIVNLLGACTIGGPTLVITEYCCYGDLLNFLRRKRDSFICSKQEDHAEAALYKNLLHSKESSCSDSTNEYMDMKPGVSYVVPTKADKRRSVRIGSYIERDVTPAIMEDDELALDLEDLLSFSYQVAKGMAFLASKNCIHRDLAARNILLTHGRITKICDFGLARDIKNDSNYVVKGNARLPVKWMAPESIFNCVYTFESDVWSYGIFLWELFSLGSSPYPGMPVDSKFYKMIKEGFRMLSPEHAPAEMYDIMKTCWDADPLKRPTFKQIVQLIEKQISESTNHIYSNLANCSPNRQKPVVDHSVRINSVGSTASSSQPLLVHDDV

[38] = biological target: Serine/threonine-protein kinase D1 (Homo sapiens) (UniProt Q15139)
Chain of Serine/threonine-protein kinase D1 (Homo sapiens) (Q15139 whole entry): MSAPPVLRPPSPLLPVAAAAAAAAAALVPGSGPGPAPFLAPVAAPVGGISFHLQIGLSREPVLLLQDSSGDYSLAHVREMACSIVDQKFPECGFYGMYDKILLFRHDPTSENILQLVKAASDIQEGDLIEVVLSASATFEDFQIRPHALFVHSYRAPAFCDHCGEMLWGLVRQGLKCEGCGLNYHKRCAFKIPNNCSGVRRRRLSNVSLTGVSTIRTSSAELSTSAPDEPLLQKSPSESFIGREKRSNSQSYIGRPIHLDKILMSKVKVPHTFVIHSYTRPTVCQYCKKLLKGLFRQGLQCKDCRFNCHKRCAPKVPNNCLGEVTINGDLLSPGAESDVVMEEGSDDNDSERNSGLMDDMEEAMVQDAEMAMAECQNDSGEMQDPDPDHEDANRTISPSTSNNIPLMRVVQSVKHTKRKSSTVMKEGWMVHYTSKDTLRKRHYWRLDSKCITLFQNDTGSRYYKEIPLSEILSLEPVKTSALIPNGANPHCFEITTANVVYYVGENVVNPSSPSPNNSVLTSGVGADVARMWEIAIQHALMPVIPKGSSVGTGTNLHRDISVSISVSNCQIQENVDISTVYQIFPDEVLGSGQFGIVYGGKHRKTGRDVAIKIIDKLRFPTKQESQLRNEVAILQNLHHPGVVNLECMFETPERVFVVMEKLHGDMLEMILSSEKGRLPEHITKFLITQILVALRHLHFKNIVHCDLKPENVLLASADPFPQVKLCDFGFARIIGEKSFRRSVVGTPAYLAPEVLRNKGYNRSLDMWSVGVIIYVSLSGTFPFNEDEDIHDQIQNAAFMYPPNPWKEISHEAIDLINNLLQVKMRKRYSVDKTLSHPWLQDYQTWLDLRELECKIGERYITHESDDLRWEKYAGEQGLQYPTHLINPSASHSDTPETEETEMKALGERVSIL

[39] = test system: Epidermal growth factor receptor (Homo sapiens), P00533 [UNDEFINED MUTATION]
[40] = test system: Epidermal growth factor receptor (Homo sapiens), P00533 [UNDEFINED MUTATION]; remark: listed apart in the source
[41] = biological target: Phosphatidylinositol 4-kinase beta (Homo sapiens) (UniProt Q9UBF8)
[42] = biological target: Macrophage colony-stimulating factor 1 receptor (Homo sapiens) (UniProt P07333)
[43] = biological target: Alpha-2B adrenergic receptor (Homo sapiens) (UniProt P18089); conditions: Compound concentration 10.0 uM
Chain of Alpha-2B adrenergic receptor (Homo sapiens) (P18089 whole entry): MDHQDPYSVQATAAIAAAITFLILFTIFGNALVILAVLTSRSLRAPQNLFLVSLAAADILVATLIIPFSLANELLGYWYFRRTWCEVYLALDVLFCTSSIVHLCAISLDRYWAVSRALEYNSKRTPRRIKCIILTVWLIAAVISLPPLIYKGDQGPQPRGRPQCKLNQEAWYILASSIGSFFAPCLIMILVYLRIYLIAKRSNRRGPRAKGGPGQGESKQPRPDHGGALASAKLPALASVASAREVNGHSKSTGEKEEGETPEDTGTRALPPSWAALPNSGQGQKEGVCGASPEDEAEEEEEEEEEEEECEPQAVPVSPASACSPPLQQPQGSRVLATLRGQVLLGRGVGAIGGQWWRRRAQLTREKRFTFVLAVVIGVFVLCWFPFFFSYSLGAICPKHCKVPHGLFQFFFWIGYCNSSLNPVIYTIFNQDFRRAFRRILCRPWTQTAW

[44] = test system: Hepatocyte growth factor receptor (Homo sapiens), P08581 [M1250T]
[45] = test system: ALK tyrosine kinase receptor (Homo sapiens), Q9UM73 [C1156Y]
[46] = Compound concentration 1000.0 nM
[47] = Compound concentration 100.0 nM

Chain of Serine/threonine-protein kinase 38 (Homo sapiens) (Q15208 2-465 limits assumed): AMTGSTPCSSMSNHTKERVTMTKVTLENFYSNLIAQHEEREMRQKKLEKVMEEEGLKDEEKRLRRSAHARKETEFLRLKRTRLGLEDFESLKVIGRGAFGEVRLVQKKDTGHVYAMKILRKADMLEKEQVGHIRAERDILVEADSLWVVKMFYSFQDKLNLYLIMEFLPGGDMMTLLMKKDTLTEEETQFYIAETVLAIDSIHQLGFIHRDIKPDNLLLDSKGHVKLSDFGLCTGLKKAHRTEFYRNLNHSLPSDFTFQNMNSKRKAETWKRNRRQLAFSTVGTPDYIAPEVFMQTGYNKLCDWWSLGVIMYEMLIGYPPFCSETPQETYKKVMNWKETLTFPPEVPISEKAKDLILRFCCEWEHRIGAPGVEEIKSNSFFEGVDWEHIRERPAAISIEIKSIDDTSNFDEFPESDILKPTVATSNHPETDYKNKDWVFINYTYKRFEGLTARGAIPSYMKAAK

CN(C)c1ncnc(-c2ccc3nc(Nc4cc(CN5CCN(C(=O)CC(F)(F)F)CC5)ccn4)[nH]c3c2)c1Cl [BAY-440]
inactive: residual activity [1, 46] 74% | residual activity [2, 46] 80% | residual activity [3, 46] 96% | residual activity [4, 46] 87% | residual activity [5, 46] 100% | residual activity [6, 46] 100% | residual activity [7, 46] 88% | inhibition [8] 30.1% | residual activity [9, 46] 92% | residual activity [10, 46] 100% | residual activity [11, 46] 51% | residual activity [12, 46] 100% | residual activity [13, 46] 99% | residual activity [14, 46] 100% | residual activity [15, 46] 84% | residual activity [16, 46] 71% | residual activity [17, 46] 100% | residual activity [18, 46] 100% | residual activity [19, 46] 81% | residual activity [20, 46] 69% | inhibition [21] 23.6% | residual activity [22, 46] 100% | residual activity [23, 46] 100% | residual activity [24, 46] 95% | inhibition [25] -6.2% | residual activity [26, 46] 93% | residual activity [27, 46] 100% | residual activity [28, 46] 57% | residual activity [29, 46] 90% | residual activity [30, 46] 59% | residual activity [31, 46] 91% | residual activity [32, 46] 92% | residual activity [33, 46] 100% | residual activity [34, 46] 67% | residual activity [35, 46] 100% | residual activity [36, 46] 89% | residual activity [37, 46] 100% | residual activity [38, 46] 100% | residual activity [39, 46] 88% | residual activity [40, 46] 88% | residual activity [41, 46] 100% | residual activity [42, 46] 100% | inhibition [43] -2.22% | residual activity [44, 46] 70% | residual activity [45, 46] 59%

C[C@H](c1ccnc(Nc2nc3ccc(-c4cc(N(C)C)ncn4)cc3[nH]2)c1)N1CCN(C(=O)CC(F)(F)F)CC1 [BAY-985]
inactive: residual activity [1, 47] 100% | residual activity [2, 47] 100% | residual activity [3, 47] 76% | residual activity [4, 47] 97% | residual activity [5, 47] 100% | residual activity [6, 47] 78% | residual activity [7, 47] 97% | inhibition [8] 35.5% | residual activity [9, 47] 100% | residual activity [10, 47] 86% | residual activity [11, 47] 85% | residual activity [12, 47] 100% | residual activity [13, 47] 96% | residual activity [14, 47] 99% | residual activity [15, 47] 94% | residual activity [16, 47] 100% | residual activity [17, 47] 97% | residual activity [18, 47] 100% | residual activity [19, 47] 100% | residual activity [20, 47] 100% | inhibition [21] 11.9% | residual activity [22, 47] 100% | residual activity [23, 47] 81% | residual activity [24, 47] 100% | inhibition [25] 24.3% | residual activity [26, 47] 95% | residual activity [27, 47] 97% | residual activity [28, 47] 100% | residual activity [29, 47] 100% | residual activity [30, 47] 86% | residual activity [31, 47] 94% | residual activity [32, 47] 98% | residual activity [33, 47] 86% | residual activity [34, 47] 100% | residual activity [35, 47] 81% | residual activity [36, 47] 76% | residual activity [37, 47] 88% | residual activity [38, 47] 100% | residual activity [39, 47] 86% | residual activity [40, 47] 96% | residual activity [41, 47] 100% | residual activity [42, 47] 100% | inhibition [43] 24.7% | residual activity [44, 47] 93% | residual activity [45, 47] 100%
